One block for each compound: values may come before it.
What was measured:
[1] = pharmacodynamic and pharmacokinetic study in rats; type: in vivo, male Sprague Dawley rats
Procedure: Specifically, a pharmacodynamic and pharmacokinetic study of structure (20b) was conducted in male Sprague Dawley rats. […] Groups of rats (n=3 or 4) were sacrificed and exsanguinated at 0.25, 0.5, 1, 2, 4 and 8 hours following dosing. Efficacy parameters, aPTT and TT, were measured for each plasma sample.

[2] = target: factor X (Bos taurus, UniProt P00743); test: Factor X inhibition assay, Ki, bovine plasma enzyme; type: biochemical; conditions: bovine plasma (footnote e)
Procedure: All inhibition assays were performed at room temperature in 96 well microplates using Bio-Rad microplate reader (Model 3550). […] The hydrolysis of chromogenic subsstrates was monitored at 405 nm. The reaction progress curves were recorded by reading the plates, typically 60 times with 30 second to 2 minute intervals. Initial rates were determined by unweighted nonlinear least-squares fitting to a first order reaction in GraFit (Erithacus Software Limited, London, England).
Factor X: Buffer and substrate were the same as used for thrombin assay. A 1:100 dilution was made in the pH8.0 tris buffer to serve as the first point. Seven more dilutions from the first were made for the assay.

[3] = target: factor VII (Homo sapiens, UniProt P08709); test: Factor VII inhibition assay, Ki (Example 5); type: biochemical
Procedure: (§1) The reaction progress curves were recorded by reading the plates, typically 60 times with 30 second to 2 minute intervals. Initial rates were determined by unweighted nonlinear least-squares fitting to a first order reaction in GraFit (Erithacus Software Limited, London, England).
From this concentration point seven more sequential dilutions were made for the assay.

[4] = target: T1, tryptase; test: tryptase inhibition assay, Ki; type: biochemical, human
T1 construct: rows headed: Ki tryptase; Ki Tryptase; tryptase; human lung; 2 (nM assay conc.)
Procedure: as §1
Tryptase: 0.1 M tris, 0.2 M NaCl, 0.1 mg/ml heparin, pH=8.0 was utilized as buffer. […] From this point seven more dilutions were made for the assay.

[5] = target: T2, Thrombin thrombomodulin complex (Bos taurus, UniProt P00735); test: thrombin-thrombomodulin complex inhibition assay, Ki; type: biochemical; conditions: read-out: Ki T.T.C. (Thrombin thrombomodulin complex)
T2 construct: thrombin was preincubated with 4 n thrombomodulin for 20 minutes at room temperature

[6] = target: T3, bovine trypsin (Bos taurus, UniProt P00760); test: trypsin inhibition assay, IC50 (Example 4); type: biochemical
T3 construct: purchased Sigma
T3 sequence (P00760 24-246): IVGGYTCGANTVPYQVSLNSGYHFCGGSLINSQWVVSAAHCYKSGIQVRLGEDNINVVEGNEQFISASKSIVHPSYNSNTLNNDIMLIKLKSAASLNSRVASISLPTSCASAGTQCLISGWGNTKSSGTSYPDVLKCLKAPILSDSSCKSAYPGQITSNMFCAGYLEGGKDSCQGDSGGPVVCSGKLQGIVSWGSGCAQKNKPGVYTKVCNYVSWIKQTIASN
Procedure: All inhibition assays of this experiment were performed at room temperature in 96 well microplates using a Bio-Rad microplate reader (Model 3550). […] This solution (2.05 mM) served as the stock solution for all the inhibition assays. The hydrolysis of chromogenic substrates was monitored at 405 nm. The reaction progress curves were recorded by reading the plates typically 90 times with 30 seconds to 2 minute intervals. The initial rate were determined by unweighted nonlinear least-squares fitting to a first order reaction in GraFit. The determined initial velocities were then nonlinear least-square fitted against the concentrations of structure.
In the trypsin assay, pH 7.8 Tris (0.10 M Tris and 0.02 M CaCl2) was utilized as the buffer. BAPNA (from Sigma) was used at 1 mg/ml in 1% DMSO (v/v) deionized water solution as substrate. The same dilutions of structure (13b) were made as for Factor VII assay.

Chain of factor VII (P08709 213-466 limits assumed): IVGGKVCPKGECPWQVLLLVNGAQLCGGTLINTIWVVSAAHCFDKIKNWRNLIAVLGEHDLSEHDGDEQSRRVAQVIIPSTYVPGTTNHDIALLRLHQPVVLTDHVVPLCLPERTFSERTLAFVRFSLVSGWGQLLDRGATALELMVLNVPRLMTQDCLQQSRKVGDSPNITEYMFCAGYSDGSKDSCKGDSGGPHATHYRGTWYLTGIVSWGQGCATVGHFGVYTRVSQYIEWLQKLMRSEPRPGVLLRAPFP
Chain of factor VII (P08709 61-212 limits assumed): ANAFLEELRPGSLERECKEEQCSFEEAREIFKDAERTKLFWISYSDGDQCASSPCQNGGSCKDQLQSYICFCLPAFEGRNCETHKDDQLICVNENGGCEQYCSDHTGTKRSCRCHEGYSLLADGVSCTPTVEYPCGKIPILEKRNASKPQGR
Chain of factor VII (P13726 33-295 partner): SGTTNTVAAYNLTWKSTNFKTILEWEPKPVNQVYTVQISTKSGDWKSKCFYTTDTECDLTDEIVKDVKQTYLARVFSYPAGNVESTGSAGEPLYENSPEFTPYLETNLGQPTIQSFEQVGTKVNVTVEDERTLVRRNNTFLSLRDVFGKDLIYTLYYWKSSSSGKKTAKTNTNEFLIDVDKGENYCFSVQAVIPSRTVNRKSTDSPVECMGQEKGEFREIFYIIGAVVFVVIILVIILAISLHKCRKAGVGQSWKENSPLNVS
Chain of factor X (P00743 234-492 limits assumed): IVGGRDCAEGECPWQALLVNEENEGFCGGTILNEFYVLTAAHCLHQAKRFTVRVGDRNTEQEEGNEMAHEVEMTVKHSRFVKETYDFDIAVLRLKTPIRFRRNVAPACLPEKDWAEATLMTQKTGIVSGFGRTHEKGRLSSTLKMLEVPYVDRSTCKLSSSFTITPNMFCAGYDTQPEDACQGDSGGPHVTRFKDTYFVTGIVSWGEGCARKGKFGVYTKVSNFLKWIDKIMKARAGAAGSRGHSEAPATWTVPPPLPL
Chain of factor X (P00743 41-180 limits assumed): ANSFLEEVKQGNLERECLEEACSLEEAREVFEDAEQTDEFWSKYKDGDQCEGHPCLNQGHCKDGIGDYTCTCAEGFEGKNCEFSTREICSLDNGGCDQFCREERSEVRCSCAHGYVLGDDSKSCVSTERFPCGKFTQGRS

- bioavailability of orally administered compound ([1]; rat, 10 mg/kg PO vs 4 mg/kg IV): approximately 27%
SMILES: N=C(N)NCCC[C@H](NC(=O)[C@@H]1CCN2CC[C@@](N)(Cc3ccccc3)C(=O)N12)C(=O)c1nc2ccccc2s1 [Structure (20b)]
- efficacy parameters aPTT and TT ([1]; rat plasma, 4 mg/kg IV and 10 mg/kg PO, FIGS. 4A and 4B): in viva efficacy

- Ki [2]: 4650 nM
- Ki [3]: 1770 nM
SMILES: N=C(N)NCCC[C@H](NC(=O)[C@@H]1CC[C@@H]2CC[C@](N)(Cc3ccccc3)C(=O)N21)C(=O)c1nc2ccccc2s1 [Structure (29a)]

- Ki [4]: 9 nM
- Ki [5]: 0.088 nM
SMILES: N=C(N)NCCC[C@H](NC(=O)[C@@H]1CC[C@@H]2CC[C@@](N)(Cc3ccccc3)C(=O)N21)C(=O)c1nc2ccccc2s1 [Structure (29b)]

- IC50 [6]: 16 ± 8 nM
SMILES: N=C(N)NCCC[C@H](NC(=O)[C@@H]1CCN2CC[C@@](N)(Cc3ccccc3)C(=O)N12)C(=O)CCl [Structure (13b)]

Source: patent US7125872B2, “β-sheet mimetics and use thereof as inhibitors of biologically active peptides or proteins” (Myriad Genetics, Inc., priority 1995, dated 2006)
